Source: article PMC7142633, “Impact of B-Ring Substitution and Acylation with Hydroxy Cinnamic Acids on the Inhibition of Porcine α-Amylase by Anthocyanin-3-Glycosides” (Foods, 2020)
Where two headings read alike, the source gives them in different places. Marks after values point to notes of the source that are not given here.

Tests used:
[1] = molecular target: human salivary α-amylase; design: method as in PMID 26471548; conditions: cited from earlier work
[2] = molecular target: T1, α-amylase from porcine pancreas (Sus scrofa, UniProt P00690); assay: α-amylase enzyme activity assay, GalG2CNP conversion, UV/Vis detection of CNP at 405 nm; type: biochemical; conditions: for IC50: read-out: IC50 (Cheng−Prussoff, Equation (9)); for Kmapp / vmaxapp: Michaelis Menten fit
T1 construct: A saline suspension of α-amylase from porcine pancreas; purchased Sigma Aldrich (Steinheim, Germany) Lot #SLBN9170V (catalogue number not given); host or cells: porcine pancreas (tissue-derived)
T1 sequence (P00690 16-511): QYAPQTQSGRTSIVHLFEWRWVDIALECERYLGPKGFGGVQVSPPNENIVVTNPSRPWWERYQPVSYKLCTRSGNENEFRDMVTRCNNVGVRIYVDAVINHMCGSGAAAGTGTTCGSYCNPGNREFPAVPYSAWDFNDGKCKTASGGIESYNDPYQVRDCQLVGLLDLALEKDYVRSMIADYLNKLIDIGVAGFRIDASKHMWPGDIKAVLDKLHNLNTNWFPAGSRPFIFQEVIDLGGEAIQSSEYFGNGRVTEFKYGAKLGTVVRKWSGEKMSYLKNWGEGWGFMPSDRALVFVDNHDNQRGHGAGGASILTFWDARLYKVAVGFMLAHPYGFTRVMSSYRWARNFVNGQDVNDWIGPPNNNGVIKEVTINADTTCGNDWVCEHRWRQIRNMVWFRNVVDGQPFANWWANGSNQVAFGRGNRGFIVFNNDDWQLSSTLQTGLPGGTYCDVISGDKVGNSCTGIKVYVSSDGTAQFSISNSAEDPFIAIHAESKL
Procedure: The enzyme activity assay, […], was established by Homoki and co-workers and already used by the authors to evaluate the inhibitory strength of different phenolic structures. To enable the evaluation of the result obtained in the present study compared to the non-anthocyanin phenolics investigated previously, the assay conditions were identical. In short, to 12 different GalG2CNP concentrations ([S] = 0−2000 µM) in MES^+ buffer, inhibitor [I] and 50 µL enzyme solution (c = 1.51 units/~100 pM, on the basis of supplier information) were mixed in a microtiter plate (Greiner BioOne, Frickenhausen, Germany; transparent, F-bottom). For blanks, the enzyme solution was substituted with MES^+ buffer. The final volume per well was 250 µL. To quantify the reaction product, a linear calibration with eight different CNP concentrations in the range of 0−35 µM was performed for each plate. Dilutions of the anthocyanin stock solutions (0.1% HCl) were equilibrated at pH 6.1 for one hour. Final inhibitor concentrations were limited due to its strong absorption at 405 nm to 12.5, 25, and 50 µM. For each anthocyanin structure, the assay was conducted on two to three different days with freshly prepared stocks of substrate, enzyme, and inhibitor.
In addition to the Michaelis Menten constant (Km) and the maximal conversion rate (vmax) values (Table S1), inhibition constants (Kic, Kiu) were calculated by fitting the data by two approaches: (i) According to the mixed inhibition equation (Equation (4)) or competitive inhibition equation (Equation (5)), applying an optimal global fit containing data from all inhibitor concentrations including the control ([I] = 0 µM); and (ii) by an independent fit according to the Michaelis Menten equation (Equation (6)), providing the apparent values Km^app and Vmax^app (Table S2) for each inhibitor concentration, which were then used to calculate the inhibition constants (Equations (7) and (8)). (4) v0= vmax/Km/[S] · (1+[I]/Kic)+(1+[I]/Kiu), (5) v0=vmax/Km/[S] · ( 1+[I]/Kic)+1, (6) v0=vmax · [S]/Km+[S], (7) Kic=vmax^app/Km^app · [I]/vmax/Km−vmax^app/Km^app, (8) Kiu=vmax^app · [I]/vmax− vmax^app.
The IC50 values of the different anthocyanins were derived from the inhibition constants for different substrate concentrations by the Cheng−Prusoff equation (Equation (9)). (9) IC50=(Km+[S])/Km/Kic+[S]/Kiu.
• KM: Michaelis Menten constant (µM) • vmax: Maximal conversion rate of the uninhibited reaction (µM/min) • v0: Observed conversion rate at given substrate and inhibitor concentration (µM/min) • [S]: Substrate concentration • [I]: Inhibitor concentration • Kic: Inhibitor constant, reflecting the competitive inhibition in the equation (µM) • Kiu: Inhibitor constant, reflecting the uncompetitive inhibition in the equation (µM) • vmax^app: Calculated maximal conversion rate, when the Michaelis Menten equation is used on an inhibited curve (µM/min) • Km^app: Calculated Michaelis Menten constant, when the Michaelis Menten equation is used on an inhibited curve (µM) • IC50: Half maximal inhibitory concentration (inhibitor concentration needed to achieve 50% inhibition; it is dependent on the substrate concentration) (µM)
For data analyses and calculations, Origin 2018b (OriginLab, software extension Enzyme Kinetics) was used. The Levenberg−Marquardt algorithm procedure was chosen for iteration. All assays were performed in two independent replicates at different dates. Values are expressed in arithmetic means ± average deviation (AD). The statistical significance and differences between groups were analyzed by one-way analysis of variance (ANOVA), followed by Tukey’s test. Differences were considered significant when p < 0.05. Data were processed using Microsoft Excel® (2010).

[3] = molecular target: porcine pancreatic α-amylase; design: method as in doi:10.1016/j.jff.2015.11.042; conditions: cited from earlier work
[4] = aqueous solution; cited from earlier work
[5] = molecular target: T1, α-amylase from porcine pancreas; assay: Isothermal titration calorimetry, single injection, GalG2CNP conversion; type: biochemical; conditions: 100 µM inhibitor, 0.95 mM substrate, 37 °C
Procedure: To evaluate the inhibitory strength of 100 µM anthocyanin-3-glucosides and black carrot anthocyanins, GalG2CNP conversion to CNP was monitored by the released heat. According to the previous study, ITC measurements were carried out in a single injection experiment set-up on a MICROCALTM PEAQ-ITC calorimeter (S/N MAL1188053, Malvern Panalytical Almelo, Netherlands). Following an equilibration time of 10 min, 1 µL α-amylase (1 µM in 50 mM MES^+ buffer) was added to 0.95 mM of the substrate with or without 100 µM of the phenolic inhibitor in the cell (Vcell = 0.207 mL). The temperature was maintained at 37 °C and the sample was stirred at 750 rpm throughout. The feedback/gain mode was set to high. The resulting heat profile was transformed and the conversion rate was plotted against the substrate concentration [S] by an origin routine template provided by Malvern® for Origin version 7.

[6] = (i) Kic and Kiu by global fit, [S] 10 µM
[7] = (i) Kic and Kiu by global fit, [S] 100 µM
[8] = (i) Kic and Kiu by global fit, [S] 10^3 µM
[9] = (i) Kic and Kiu by global fit, [S] 10^6 µM
[10] = (i) global fit, mixed inhibition Equation (4), read-out: Kic
[11] = (i) global fit, mixed inhibition Equation (4), read-out: Kiu
[12] = (ii) Kic and Kiu by independent fit, [S] 10 µM
[13] = (ii) Kic and Kiu by independent fit, [S] 100 µM
[14] = (ii) Kic and Kiu by independent fit, [S] 10^3 µM
[15] = (ii) Kic and Kiu by independent fit, [S] 10^6 µM
[16] = (ii) independent Michaelis Menten fit (Equation (6)), calculation by Equation (7), read-out: Kic
[17] = (ii) independent Michaelis Menten fit (Equation (6)), calculation by Equation (8), read-out: Kiu
[18] = (ii) independent fit, Equations (7) and (8)
[19] = from apparent values, inhibitor c 25 µM, read-out: Kic
[20] = from apparent values, inhibitor c 25 µM, read-out: Kiu
[21] = from apparent values, inhibitor c 50 µM, read-out: Kic
[22] = from apparent values, inhibitor c 50 µM, read-out: Kiu
[23] = from apparent values, inhibitor c 12,5 µM, read-out: Kic
[24] = from apparent values, inhibitor c 12,5 µM, read-out: Kiu

Row | SMILES | IC50 [2, 6] [µM] | IC50 [2, 7] [µM] | IC50 [2, 8] [µM] | Kic/Kiu ([2]; (i) global fit, Equation (4)) | Ki [2, 10] [µM] | Ki [2, 11] [µM] | IC50 [2, 12] [µM] | IC50 [2, 13] [µM] | IC50 [2, 14] [µM] | IC50 [2, 15] [µM] | Ki [2, 16] [µM] | Ki [2, 17] [µM] | Kic/Kiu [2, 18] | Kmapp ([2]; inhibitor c 25 µM) [µM] | vmaxapp ([2]; inhibitor c 25 µM) | Kmapp ([2]; inhibitor c 50 µM) [µM] | vmaxapp ([2]; inhibitor c 50 µM) | Kmapp ([2]; inhibitor c 12,5 µM) [µM] | vmaxapp ([2]; inhibitor c 12,5 µM) | Ki [2, 19] [µM] | also measured
1 | OC[C@H]1O[C@@H](Oc2cc3c(O)cc(O)cc3[o+]c2-c2ccc(O)c(O)c2)[C@H](O)[C@@H](O)[C@@H]1O [Cyd-glc, cyanidin-3-glucoside] | 83 ± 11 | 97 ± 15 | 147 ± 36 | 0.45 ± 0.08 ***^a | 81 ± 10 | 184 ± 56 | 137 | 153 | 201 | 228 | 134 | 228 | 0.56 *^a | 285 | 0,74 ± 0,26 µM/min | 300 | 0,69 ± 0,21 µM/min | 244 | 0,79 ± 0,23 µM/min | 64 | IC50 [1]: 180 ± 20 µM; inhibition type [1]: competitive inhibition type; IC50 [2, 9]: 184 ± 56 µM; Ki [2, 20]: 141 µM; Ki [2, 21]: 103 µM; Ki [2, 22]: 250 µM; Ki [2, 23]: 236 µM; Ki [2, 24]: 146 µM; Ki ([2]; mean over inhibitor c 12,5, 25, 50 µM (Supplementary 2), read-out: Kiu mean ± SD): 179 ± 62 µM; IC50 [3]: 24 ± 3 µM; inhibition type [3]: competitive inhibition type; pKH [4]: 3.02 ± 0.06
2 | OC[C@H]1O[C@@H](Oc2cc3c(O)cc(O)cc3[o+]c2-c2ccc(O)cc2)[C@H](O)[C@@H](O)[C@@H]1O [Plg-glc, pelargonidin-3-glucoside] | 58 ± 15 | 71 ± 20 | 117 ± 41 | 0.39 ± 0.05 ^a | 57 ± 15 | 151 ± 59 | 71 ± 2 | 84 ± 7 | 127 ± 31 | 158 ± 53 | 69 ± 1 | 158 ± 53 | 0.46 ± 0.13 ^a | 258 ± 13 | 0,58 ± 0,22 µM/min | 325 ± 42 | 0,53 ± 0,23 µM/min | 235 ± 2 | 0,65 ± 0,23 µM/min | 62 ± 7 | IC50 [2, 9]: 151 ± 59 µM; Ki [2, 20]: 126 ± 30 µM; Ki [2, 21]: 55 ± 19 µM; Ki [2, 22]: 163 ± 64 µM; Ki [2, 23]: 91 ± 22 µM; Ki [2, 24]: 187 ± 64 µM; pKH [4]: 2.98 ± 0.06
3 | OC[C@H]1O[C@@H](Oc2cc3c(O)cc(O)cc3[o+]c2-c2cc(O)c(O)c(O)c2)[C@H](O)[C@@H](O)[C@@H]1O [Dpd-glc, delphinidin-3-glucoside] | 64 ± 25 | 77 ± 25 | 134 ± 1 | 0.34 ± 0.24 ^a | 62 ± 25 | 204 ± 68 | 65 ± 20 | 83 ± 24 | 167 ± 20 | 270 ± 32 | 63 ± 19 | 270 ± 33 | 0.26 ± 0.13 ^a | 273 ± 52 | 0,79 ± 0,09 µM/min | 335 ± 129 | 0,69 ± 0,03 µM/min | 247 ± 33 | 0,84 ± 0,10 µM/min | 63 ± 17 | Ki [2, 20]: 233 ± 25 µM; Ki [2, 21]: 60 ± 27 µM; Ki [2, 22]: 212 ± 87 µM; Ki [2, 23]: 66 ± 14 µM; Ki [2, 24]: 364 ± 13 µM; Ki ([2]; mean over inhibitor c 12,5, 25, 50 µM (Supplementary 2), read-out: Kic mean ± SD): 63 ± 3 µM; inhibitory strength by ITC (thermogram, Michaelis Menten plot) [5]: Mlv-3-glc > Cyd-3-glc > Dpd-3-glc~Peo-3-glc; pKH [4]: 2.36 ± 0.05
